# Source: patent US9682967B2
# Molecular target: hSortilin (Homo sapiens (Human), UniProt Q99523)
# Assay: hSortilin affinity assay (displacement of 3H-neurotensin, SPA)
# Assay type: binding
# Conditions: for IC50: [3H]-Neurotensin 5 nM, 150 nM 6his-Sortilin, read-out: hSortilin NTS Binding IC50; for Ki: from IC50 by Cheng-Prusoff, Kd neurotensin 100 nM
# hSortilin, sequence (Q99523 34-755): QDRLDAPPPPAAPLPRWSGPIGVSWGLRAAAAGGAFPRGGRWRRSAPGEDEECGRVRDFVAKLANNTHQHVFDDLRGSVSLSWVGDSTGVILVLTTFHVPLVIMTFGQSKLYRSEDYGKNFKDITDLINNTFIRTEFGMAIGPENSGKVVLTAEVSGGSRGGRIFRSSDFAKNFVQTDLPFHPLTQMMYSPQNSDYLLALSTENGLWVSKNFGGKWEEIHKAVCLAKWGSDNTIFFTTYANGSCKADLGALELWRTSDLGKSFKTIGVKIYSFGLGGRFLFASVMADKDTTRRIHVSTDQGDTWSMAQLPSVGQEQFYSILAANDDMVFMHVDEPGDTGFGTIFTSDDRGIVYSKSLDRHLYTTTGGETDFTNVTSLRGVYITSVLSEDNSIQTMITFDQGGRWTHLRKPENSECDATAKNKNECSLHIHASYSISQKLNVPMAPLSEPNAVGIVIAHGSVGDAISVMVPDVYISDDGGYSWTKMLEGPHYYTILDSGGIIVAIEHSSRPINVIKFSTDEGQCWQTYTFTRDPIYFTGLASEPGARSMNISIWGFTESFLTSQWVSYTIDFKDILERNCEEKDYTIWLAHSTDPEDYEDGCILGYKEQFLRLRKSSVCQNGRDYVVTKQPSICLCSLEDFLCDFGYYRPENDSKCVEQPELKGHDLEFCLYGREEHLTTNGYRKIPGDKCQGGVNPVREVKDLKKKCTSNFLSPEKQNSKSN
Compound,IC50 [nM],Ki [nM]
"Cc1cccc(NC(=O)c2ccc(Cl)c(F)c2C(=O)O)n1 [Example 14, 5-Chloro-6-fluoro-N-(6-methyl-pyridin-2-yl)-phthalamic acid]",4200,4000
"Cc1cccc(NC(=O)c2ccc(C(C)C)cc2C(=O)O)n1 [Example 43, N 5-Isopropyl-N-(6-methyl-pyridin-2-yl)-phthalamic acid]",1100,1050
"COc1cccc(NC(=O)c2ccc(C(F)(F)F)cc2C(=O)O)n1 [Example 37, N-(6-Methoxy-pyridin-2-yl)-5-trifluoromethyl-phthalamic acid]",1300,1240
"Cc1ccnc(NC(=O)c2cc(Cl)c(Cl)cc2C(=O)O)c1 [Example 10, 4,5-Dichloro-N-(4-methyl-pyridin-2-yl)-phthalamic acid]",2200,2100
"Cc1ccc(NC(=O)c2ccc(Br)cc2C(=O)O)nn1 [Example 32, 5-Bromo-N-(6-methyl-pyridazin-3-yl)-phthalamic acid]",3200,3050
"Cc1ccnc(NC(=O)c2ccc(Br)cc2C(=O)O)c1 [Example 24, 5-Bromo-N-(4-methyl-pyridin-2-yl)-phthalamic acid]",2400,2290
"Cc1cccc(NC(=O)c2cc(C)c(C)cc2C(=O)O)n1 [Example 15, 4,5-Dimethyl-N-(6-methyl-pyridin-2-yl)-phthalamic acid]",3400,3240
N#Cc1c(NC(=O)c2ccc(Br)cc2C(=O)O)sc2c1CCCC2 [Example 6],4000,–
"Cc1ccnc(NC(=O)c2ccc(C(F)(F)F)cc2C(=O)O)c1 [Example 8, N-(4-methyl-pyridin-2-yl)-5-trifluoromethyl-phthalamic acid]",1000,952
"Cc1ccc(NC(=O)c2ccc(Br)cc2C(=O)O)nc1 [Example 19, 5-Bromo-N-(5-methyl-pyridin-2-yl)-phthalamic acid]",1700,1620
"Cc1cccc(NC(=O)c2cc(C(F)(F)F)c(C(F)(F)F)cc2C(=O)O)n1 [Example 47, 2-((6-methylpyridin-2-yl)carbamoyl)-4,5-bis(trifluoromethyl)benzoic acid]",1200,1140
"CCCc1ccc(C(=O)Nc2cccc(C)n2)c(C(=O)O)c1 [Example 41, N-(6-Methyl-pyridin-2-yl)-5-propyl-phthalamic acid]",3600,3430
"Cc1cccc(NC(=O)c2ccc(Cl)cc2C(=O)O)n1 [Example 4, 5-Chloro-N-(6-methyl-pyridin-2-yl)-phthalamic acid]",1400,1330
"O=C(O)c1cc(Br)ccc1C(=O)Nc1cccc(Cl)n1 [Example 22, 5-Bromo-N-(6-chloro-pyridin-2-yl)-phthalamic acid]",1600,1520
"O=C(O)c1cc(C(F)(F)F)ccc1C(=O)NCc1ccncc1 [Example 39, N-Pyridin-4-ylmethyl-5-trifluoromethyl-phthalamic acid]",7500,7140
"C=C(C)c1ccc(C(=O)Nc2cccc(C)n2)c(C(=O)O)c1 [Example 42, N 5-Isopropenyl-N-(6-methyl-pyridin-2-yl)-phthalamic acid]",5200,4950
"O=C(O)c1cc(Br)ccc1C(=O)Nc1ccccn1 [Example 21, 5-Bromo-N-pyridin-2-yl-phthalamic acid]",3600,3430
"O=C(O)c1cc(Br)ccc1C(=O)Nc1ccc2ccccc2n1 [Example 29, 5-Bromo-N-quinolin-2-yl-phthalamic acid]",1300,1240
"Cc1cc(NC(=O)c2ccc(Br)cc2C(=O)O)ccn1 [Example 25, 5-Bromo-N-(2-methyl-pyridin-4-yl)-phthalamic acid]",1800,1710
"Cc1ccc(C(=O)Nc2cccc(C)n2)c(C(=O)O)c1 [Example 3, 5-Methyl-N-(6-methyl-pyridin-2-yl)-phthalamic acid]",6400,6100
"Cc1csc(NC(=O)c2ccc(Br)cc2C(=O)O)n1 [Example 28, 5-Bromo-N-(4-methyl-thiazol-2-yl)-phthalamic acid]",3600,3430
O=C(O)c1cc(Br)ccc1C(=O)Nc1cccnc1 [Example 26],5500,5240
"O=C(O)c1cc(C(F)(F)F)ccc1C(=O)NCc1cccnc1 [Example 40, N-Pyridin-3-ylmethyl-5-trifluoromethyl-phthalamic acid]",4800,4570
"Cc1cc(NC(=O)c2cc(Cl)c(Cl)cc2C(=O)O)ccn1 [Example 12, 4,5-Dichloro-N-(2-methyl-pyridin-4-yl)-phthalamic acid]",1800,1710
"O=C(O)c1cc(C(F)(F)F)ccc1C(=O)NCc1ccccn1 [Example 38, N-Pyridin-2-ylmethyl-5-trifluoromethyl-phthalamic acid]",1600,1520
"O=C(O)c1cc(Br)ccc1C(=O)Nc1ccc(Cl)c(Cl)n1 [Example 30, 5-Bromo-N-(5,6-dichloro-pyridin-2-yl)-phthalamic acid]",2100,2000
"Cc1cc(NC(=O)c2ccc(Br)cc2C(=O)O)ncn1 [Example 35, 5-Bromo-N-(6-methyl-pyrimidin-4-yl)-phthalamic acid]",2000,1900
"Cc1cccc(NC(=O)c2ccc(Br)cc2C(=O)O)n1 [Example 2, 5-Bromo-N-(6-methyl-pyridin-2-yl)-phthalamic acid]",1200,1140

# Results, then the compound that gave them:
IC50 [nM],Ki [nM],Compound
570,543,"Cc1ccc(NC(=O)c2ccc(Br)cc2C(=O)O)nc1C [Example 23, 5-Bromo-N-(5,6-dimethyl-pyridin-2-yl)-phthalamic acid]"
700,667,"Cc1cc(NC(=O)c2ccc(C(F)(F)F)cc2C(=O)O)ccn1 [Example 9, N-(2-methyl-pyridin-4-yl)-5-trifluoromethyl-phthalamic acid]"
830,790,"Cc1cccc(NC(=O)c2cc(Cl)c(Cl)cc2C(=O)O)n1 [Example 5, 4,5-Dichloro-N-(6-methyl-pyridin-2-yl)-phthalamic acid]"
490,467,"Cc1nccc(NC(=O)c2ccc(Br)cc2C(=O)O)n1 [Example 34, 5-Bromo-N-(2-methyl-pyrimidin-4-yl)-phthalamic acid]"
970,924,"Cc1cc(C)nc(NC(=O)c2ccc(Br)cc2C(=O)O)c1 [Example 33, 5-Bromo-N-(4,6-dimethyl-pyridin-2-yl)-phthalamic acid]"
360,343,"O=C(O)c1cc(C(F)(F)F)ccc1C(=O)Nc1ncc(C(F)(F)F)cc1Cl [Example 16, 2-((3-chloro-5-(trifluoromethyl)pyridin-2-yl)carbamoyl)-5-(trifluoromethyl)benzoic acid]"
88,84,"O=C(O)c1cc(C(F)(F)F)ccc1C(=O)Nc1ccc2c(n1)CCCC2 [Example 46, 2-((5,6,7,8-tetrahydroquinolin-2-yl)carbamoyl)-5-(trifluoromethyl)benzoic acid]"
760,721,"O=C(O)c1cc(C(F)(F)F)c(C(F)(F)F)cc1C(=O)Nc1ccc2c(n1)CCCC2 [Example 48, 2-((5,6,7,8-tetrahydroquinolin-2-yl)carbamoyl)-4,5-bis(trifluoromethyl)benzoic acid]"
240,229,"Cc1ncc(NC(=O)c2ccc(C(F)(F)F)cc2C(=O)O)nc1C [Example 18, 2-((5,6-dimethylpyrazin-2-yl)carbamoyl)-5-(trifluoromethyl)benzoic acid]"
200,190,"Cc1cnc(NC(=O)c2ccc(C(F)(F)F)cc2C(=O)O)nc1C [Example 45, 2-((4,5-dimethylpyrimidin-2-yl)carbamoyl)-5-(trifluoromethyl)benzoic acid]"
990,943,"O=C(O)c1cc(Br)ccc1C(=O)Nc1ccc(Cl)cn1 [Example 20, 5-Bromo-N-(5-chloro-pyridin-2-yl)-phthalamic acid]"
480,457,"Cc1ccc(NC(=O)c2cc(Cl)c(Cl)cc2C(=O)O)nc1C [Example 11, 4,5-Dichloro-N-(5,6-Dimethyl-pyridin-2-yl)-phthalamic acid]"
620,599,"Cc1nccc(NC(=O)c2cc(C(F)(F)F)c(C(F)(F)F)cc2C(=O)O)n1 [Example 50, 2-((2-methylpyrimidin-4-yl)carbamoyl)-4,5-bis(trifluoromethyl)benzoic acid]"
750,734,"Cc1ccc(NC(=O)c2cc(C(F)(F)F)c(C(F)(F)F)cc2C(=O)O)nc1C [Example 49, 2-((5,6-dimethylpyridin-2-yl)carbamoyl)-4,5-bis(trifluoromethyl)benzoic acid]"
640,614,"Cc1cc(NC(=O)c2ccc(C(F)(F)F)cc2C(=O)O)cc(C)n1 [Example 51, 2-((2,6-dimethylpyridin-4-yl)carbamoyl)-5-(trifluoromethyl)benzoic acid]"
170,162,"Cc1ccc(NC(=O)c2ccc(C(F)(F)F)cc2C(=O)O)nc1C [Example 7, N-(5,6-Dimethyl-pyridin-2-yl)-5-trifluoromethyl-phthalamic acid]"
750,714,"COc1cc(NC(=O)c2ccc(C(F)(F)F)cc2C(=O)O)ccn1 [Example 36, N-(2-Methoxy-pyridin-4-yl)-5-trifluoromethyl-phthalamic acid]"
360,343,"Cc1ccnc(NC(=O)c2ccc(C(F)(F)F)cc2C(=O)O)n1 [Example 17, 2-((4-methylpyrimidin-2-yl)carbamoyl)-5-(trifluoromethyl)benzoic acid]"
480,457,"Cc1nccc(NC(=O)c2cc(Cl)c(Cl)cc2C(=O)O)n1 [Example 13, 4,5-Dichloro-N-(2-methyl-pyrimidin-4-yl)-phthalamic acid]"
